# In US9073903B2, “Imidazole-2,4-dione inhibitors of casein kinase 1” (Jasco Pharmaceuticals, LLC, priority 2010, dated 2015):
# Like-named read-outs stand apart in the source and are kept apart here.
# Legend:
# [1] = Hepatic microsomal stability, rat; assay type: in vitro ADME, rat (Sprague-Dawley)
# Experimental: (§1) Hepatic microsmal assays were performed with compound 5114 in human and rat (Sprague-Dawley). Protein concentrations of 0.4 (human) and 0.2 mg/mL (rat) with an NADPH regenerating cofactor system (2.6 mM NADP+, 6.6 mM glucose-6-phosphate, 0.8 U/mL glucose-6-phosphate dehydrogenase, and 6.6 mM magnesium chloride) were used. A 100 μM 20% DMSO/80% acetonitrile working stock of each of the compounds was diluted 100 fold resulting in 1 μM compound/1% final organic reaction concentrations. Time points were removed at 0 and 60 minutes. At each time point, 100 μL of the incubation suspension was added to 200 μL of acetonitrile containing internal standard (tolbutamide), followed by centrifugation at 3,220 rcf for 10 minutes. Two hundred (200) μL of the resulting supernatants were removed, dried under nitrogen and reconstituted in 100 μL of 2 mM ammonium acetate, 0.1% formic acid in 50% methanol prior to analysis by LC/MS/MS. Testosterone and dexamethasone were used as reference compounds.
# [2] = Hepatic microsomal stability, human; assay type: in vitro ADME
# Experimental: as §1
# [3] = PAMPA, 5 h, 10 μM, pH 7.4
# Experimental: The target concentration in the assay was 10 μM, prepared by diluting (1000-fold) the 10 mM stock solutions in DMSO into PBS, pH 7.4. The final DMSO concentration was 0.1%. The 10 μM solutions were added, 300 μL, to wells in the donor plate. The receiver plate, which contained 200 μL of PBS, pH 7.4 per well, was placed in the donor plate and the assembly was incubated for 5 hours at ambient temperature. At the end of the incubation period the plates were separated and the compound concentrations in each solution were determined by LC/MS/MS. The assay was performed in triplicate.
# C0 is the initial concentration in the donor well (μM)
# CD(t) is the concentration in the donor well after incubation (μM)
# CA(t) is the concentration in the acceptor well after incubation (μM)
# VD is the volume in the donor well (0.3 mL)
# VA is the volume in the acceptor well (0.2 mL)
# CE is (CD(t)VD+CA(t)VA)/(VD+VA)
# A is the filter area (0.3 cm2)
# t is the incubation time (18,000 s).
# different kinases = assay: Kinase activity screening by Millipore UK Ltd, percent kinase activity at 300 nM of compound (Table 31); assay type: biochemical
# Experimental: Protocols for Kinase Activity Screening: Kinase screening was performed by Millipore UK Ltd. Kinase dilution buffer composition: 20 mM MOPS, 1 mM EDTA, 0.01% Brij-35, 5% Glycerol, 0.1% b-mercaptoethanol, 1 mg/mL BSA.
# Caco-2 cells = assay: Inhibition of Caco-2 cells (MTS cell proliferation); assay type: cell-based; settings: for inhibition at 0.4 µM / inhibition at 0.8 µM / inhibition at 1.6 µM / inhibition at 3.2 µM / inhibition at 6.25 µM / inhibition at 12.5 µM / inhibition at 25 µM / inhibition at 50 µM / inhibition at 100 µM / IC50: Homo sapiens; for inhibition at 0.4 µM: 0.400 μM; for inhibition at 0.4 µM / inhibition at 0.8 µM / inhibition at 1.6 µM / inhibition at 3.2 µM / inhibition at 6.25 µM / inhibition at 12.5 µM / inhibition at 25 µM / inhibition at 50 µM / inhibition at 100 µM: 72 hours; for inhibition at 0.8 µM: 0.800 μM; for inhibition at 1.6 µM: 1.600 μM; for inhibition at 3.2 µM: 3.200 μM; for inhibition at 6.25 µM: 6.250 μM; for inhibition at 12.5 µM: 12.500 μM
# Experimental: Inhibition of Caco-2 Cells Cells: Caco-2 cells, ATCC Passage 33, Mycoplasma free. Medium: DMEM Medium (GIBCO Cat #11995073) supplemented with 10% fetal bovine serum (Hyclone Cat #SH30396.03). Seeding: 3,000 cells/well (100 μL) into 96-wells plate, incubated overnight at 37° C. in a humidified, 5% CO2 atmosphere. […] Fifty microliters (50 μL) of diluted compounds were added into each well. The final concentrations of the positive control and test compounds were shown in the graphs. The cells were incubated for 72 hours after addition of the test compounds. MTS: 15 uL of MTS solution (Promega Cat #G5430) was added into each well and incubated with cells for 4 hours at 37° C. in a humidified, 5% CO2 atmosphere. Measurement: Absorbance at 490 nm was measured using MD Spectramax Plus384 spectrophotometer. The regression curves were calculated by the GraphPad Prism 5 using “log(inhibitor) vs response—variable slope”. Calculation: % of inhibition=(ODzero ctrl−OD compound)/ODzero ctrl*100.
# [4] = replicate 1, read-out: % of inhibition 1
# [5] = replicate 2, read-out: % of inhibition 2
compound,measurement,setting,value
C[C@]12CC[C@H]3[C@@H](CCC4=CC(=O)CC[C@@]43C)[C@@H]1CC[C@@H]2O [Testosterone],"% remaining after incubation, Rat Microsomes","[1]; 1 μM compound, 0.2 mg/mL protein, NADPH regenerating system, 60 minutes",0.6%
same,"% remaining after incubation, Human Microsomes","[2]; 1 μM compound, 0.4 mg/mL protein, NADPH regenerating system, 60 minutes",42%
C[C@@H]1C[C@H]2[C@@H]3CCC4=CC(=O)C=C[C@]4(C)[C@@]3(F)[C@@H](O)C[C@]2(C)[C@@]1(O)C(=O)CO [Dexamethasone],Mass Retention R,[3],9%
same,"% remaining after incubation, Rat Microsomes","[1]; Sprague-Dawley, rat, microsomes, 1 h, 1 μM",91%
same,"% remaining after incubation, Human Microsomes","[2]; human, microsomes, 1 h, 1 μM",85%
"Nc1ccc2c(c1)CN(c1nccc(/C=C3\NC(=O)NC3=O)n1)CC2 [Example 64, (Z)-5-((2-(7-amino-3,4-dihydroisoquinolin-2(1H)-yl)pyrimidin-4-yl)methylene)imidazolidine-2,4-dione]",Percent Kinase Activity of Enzyme CK1,different kinases,81%
same,Percent Kinase Activity of Enzyme CK1g2,different kinases,75%
same,Percent Kinase Activity of Enzyme CK2,different kinases,65%
same,Percent Kinase Activity of Enzyme Pim-1,different kinases,83%
same,Percent Kinase Activity of Enzyme Pim-2,different kinases,81%
same,Percent Kinase Activity of Enzyme Pim-3,different kinases,97%
"CN(c1nccc(/C=C2\NC(=O)NC2=O)n1)[C@H]1CCCNC1 [Example 67, (S,Z)-5-((2-(methyl(piperidin-3-yl)amino)pyrimidin-4-yl)methylene)imidazolidine-2,4-dione]",Percent Kinase Activity of Enzyme CK1,different kinases,104%
same,Percent Kinase Activity of Enzyme CK1g2,different kinases,111%
same,Percent Kinase Activity of Enzyme CK2,different kinases,94%
same,Percent Kinase Activity of Enzyme Pim-1,different kinases,98%
same,Percent Kinase Activity of Enzyme Pim-2,different kinases,99%
same,Percent Kinase Activity of Enzyme Pim-3,different kinases,114%
"Nc1cccc2c1CCN(c1nccc(/C=C3\NC(=O)NC3=O)n1)C2 [Example 66, (Z)-5-((2-(5-amino-3,4-dihydroisoquinolin-2(1H)-yl)pyrimidin-4-yl)methylene)imidazolidine-2,4-dione]",Percent Kinase Activity of Enzyme CK1,different kinases,98%
same,Percent Kinase Activity of Enzyme CK1g2,different kinases,77%
same,Percent Kinase Activity of Enzyme CK2,different kinases,78%
same,Percent Kinase Activity of Enzyme Pim-1,different kinases,91%
same,Percent Kinase Activity of Enzyme Pim-2,different kinases,86%
same,Percent Kinase Activity of Enzyme Pim-3,different kinases,96%
CNC(=O)c1cc(Oc2ccc(NC(=O)Nc3ccc(Cl)c(C(F)(F)F)c3)cc2)ccn1 [Sorafenib],inhibition at 0.4 µM,Caco-2 cells; [4],0.049%
same,inhibition at 0.4 µM,Caco-2 cells; [5],0.315%
same,inhibition at 0.8 µM,Caco-2 cells; [4],9.97%
same,inhibition at 0.8 µM,Caco-2 cells; [5],6.24%
same,inhibition at 1.6 µM,Caco-2 cells; [4],14.3%
same,inhibition at 1.6 µM,Caco-2 cells; [5],11.4%
same,inhibition at 3.2 µM,Caco-2 cells; [4],17%
same,inhibition at 3.2 µM,Caco-2 cells; [5],9.39%
same,inhibition at 6.25 µM,Caco-2 cells; [4],19.9%
same,inhibition at 6.25 µM,Caco-2 cells; [5],23.5%
same,inhibition at 12.5 µM,Caco-2 cells; [4],76.8%
same,inhibition at 12.5 µM,Caco-2 cells; [5],76.3%
same,inhibition at 25 µM,Caco-2 cells; [4],100%
same,inhibition at 25 µM,Caco-2 cells; [5],98.5%
same,inhibition at 50 µM,Caco-2 cells; [4],102%
same,inhibition at 50 µM,Caco-2 cells; [5],99%
same,inhibition at 100 µM,Caco-2 cells; [4],84.1%
same,inhibition at 100 µM,Caco-2 cells; [5],96.7%
same,IC50,"Caco-2 cells; Table 18, read-out: Caco-2* 50% inhibition concentration",8.78 µM
same,IC50,"Caco-2 cells; Table 26, 72 hours, read-out: 50% viability conc.",8.77 µM
same,IC50,"Caco-2 cells; Table 26, 72 hours, read-out: IC50",9.37 µM
same,Maximal inhibition %,"Caco-2 cells; Table 26, 72 hours",100%
"O=C1NC(=O)/C(=C/c2ccnc(N3CCC(CNCc4cccc(-c5ccsc5)n4)CC3)n2)N1 [Example 69, (Z)-5-((2-(4-((((6-(thiophen-3-yl)pyridin-2-yl)methyl)amino)methyl)piperidin-1-yl)pyrimidin-4-yl)methylene)imidazolidine-2,4-dione]",Percent Kinase Activity of Enzyme CK1,different kinases,92%
same,Percent Kinase Activity of Enzyme CK1g2,different kinases,76%
same,Percent Kinase Activity of Enzyme CK2,different kinases,106%
same,Percent Kinase Activity of Enzyme Pim-1,different kinases,46%
same,Percent Kinase Activity of Enzyme Pim-2,different kinases,86%
same,Percent Kinase Activity of Enzyme Pim-3,different kinases,59%
"NCC1CCN(c2nccc(/C=C3\NC(=O)NC3=O)n2)CC1 [Example 65, (Z)-5-((2-(4-(aminomethyl)piperidin-1-yl)pyrimidin-4-yl)methylene)imidazolidine-2,4-dione]",Percent Kinase Activity of Enzyme CK1,different kinases,97%
same,Percent Kinase Activity of Enzyme CK1g2,different kinases,96%
same,Percent Kinase Activity of Enzyme CK2,different kinases,94%
same,Percent Kinase Activity of Enzyme Pim-1,different kinases,92%
same,Percent Kinase Activity of Enzyme Pim-2,different kinases,78%
same,Percent Kinase Activity of Enzyme Pim-3,different kinases,76%
"O=C1NC(=O)/C(=C/c2ccnc(N3CCC(CNCc4ccc5ccccc5n4)CC3)n2)N1 [Example 68, (Z)-5-((2-(4-(((quinolin-2-ylmethyl)amino)methyl)piperidin-1-yl)pyrimidin-4-yl)methylene)imidazolidine-2,4-dione]",Percent Kinase Activity of Enzyme CK1,different kinases,97%
same,Percent Kinase Activity of Enzyme CK1g2,different kinases,84%
same,Percent Kinase Activity of Enzyme CK2,different kinases,109%
same,Percent Kinase Activity of Enzyme Pim-1,different kinases,75%
same,Percent Kinase Activity of Enzyme Pim-2,different kinases,69%
same,Percent Kinase Activity of Enzyme Pim-3,different kinases,63%
